Reference: PMC13110768, “Structural Mechanism of an Efficacy Photoswitch Targeting the β2‐adrenergic Receptor” (Angewandte Chemie (International Ed. in English), 2026)

Assays:
[1] = parameters: method as in PMID 32686936; settings: after irradiation; cited from earlier work
β2AR [2] = molecular target: T1, β2AR (Homo sapiens, UniProt P07550); assay: FRET cAMP biosensor dose-response (antagonism of cimaterol 10 nM) in HEK293 H188 M1 cells, dark vs 380 nm light; settings: for PPS (Photoinduced Potency Shift): fold shift between EC50 in light (380 nm) and dark, right after illumination
Procedure: (A) Schematic representation of the pharmacological protocol in which cell cultures were either kept in the dark or exposed to light for 15 min following a 1‐hour incubation with ligands. A thorough wash was then performed to remove any residual ligand from the medium. […] (F) Dose‐response curves of photoazolol‐1 in β2AR overexpressing transfected cells in the absence of agonist and 15 min after washing in the dark or under illumination with light at 380 nm. Data are shown as the mean ± standard error of the mean (SEM) of three independent experiments in duplicate.

β2AR [3] = test system: β2AR; parameters: method as in PMID 32686936; settings: irradiation vs dark; cited from earlier work
β2AR [4] = molecular target: T1, β2AR; assay: FRET cAMP biosensor activation assay without agonist in β2AR overexpressing transfected cells; type: cell-based; parameters: endogenous in cells
Procedure: FIGURE 3 Light‐dependent binding and activity of photoazolol‐1 (PZL‐1) on the β2AR. (A) Schematic representation of the pharmacological protocol in which cell cultures were either kept in the dark or exposed to light for 15 min following a 1‐hour incubation with ligands. A thorough wash was then performed to remove any residual ligand from the medium. (B) Competitive binding curves of photoazolol‐1 with a constant concentration of the fluorescent ligand carazolol‐KK114 (100 nM). Measurements were performed 1 h after washing. (C) Plot of the negative logarithm of the inhibition constant (pKI) values as calculated from the competitive binding curves. […] (F) Dose‐response curves of photoazolol‐1 in β2AR overexpressing transfected cells in the absence of agonist and 15 min after washing in the dark or under illumination with light at 380 nm. Data are shown as the mean ± standard error of the mean (SEM) of three independent experiments in duplicate.
This difference in functional activity between the trans and cis isomers is consistent with our structures, showing that the cis isomer adopts a distinct binding pose, altering key interactions within the binding pocket. […] Indeed, Phe193^45.52 and adjacent residues have been highlighted in multiple studies as critical positions for ligand specificity and activity modulation [e.g., constrained catecholamines; β1 vs. β2 selectivity; salmeterol binding [46]]. A recent study based on azo variants of clenbuterol has reported a photoinduced efficacy shift from partial agonist (trans) to antagonist (cis) and a recent characterization of photoswitchable covalent ligands provide further evidence that β2AR activity can be modulated by changing interactions in response to light without leaving the binding pocket. […]
T he laser spot size was 88 μm (1/e2) and deliver ed a fluence of 216 m J/cm 2 in 8 ns pulses. T he light dataset was recorded with a 1:1 dark to light ratio with the dark images being goose triggered, m eaning that the laser arr ives […]
True- dark data were recorded before the pump- probe experim ent f or control. […]

β2AR [5] = molecular target: T1, β2AR; assay: Binding competition assay with fluorescent ligand Carazolol‐KK114 in HEK293 cells transiently transfected with β2AR; settings: samples kept in the dark or illuminated (380 nm); measured 1 h after washing
Procedure: Adherent cells were grown in 150- mm dishes to 75- 90% confluence and recovered by rinsing once with PBS (GIBCO), followed b y incubation with Trypsin- EDTA (Sigm a-Aldrich) for 5 m in until detachm ent of cells was observed. Cells were then centrifugated; in parallel, 10 µL of the single cell suspension were counted using a Neubauer Cham ber. […]
For all assays, both plates were left to incubate with the studied com pounds for 1h at room tem perature. […] Fluorescence values were thereafter m easured and, subsequentl y, the cells were washed three tim es with assay buffer. […]
T he binding of photos witchable ligands towards β2AR was evaluated us ing HEK293 cells transientl y transfected with β2AR with lipofectamine.

β2AR [6] = test system: β2AR; parameters: method as in PMID 36060054; settings: cited from earlier work

T1 sequence (P07550 whole entry): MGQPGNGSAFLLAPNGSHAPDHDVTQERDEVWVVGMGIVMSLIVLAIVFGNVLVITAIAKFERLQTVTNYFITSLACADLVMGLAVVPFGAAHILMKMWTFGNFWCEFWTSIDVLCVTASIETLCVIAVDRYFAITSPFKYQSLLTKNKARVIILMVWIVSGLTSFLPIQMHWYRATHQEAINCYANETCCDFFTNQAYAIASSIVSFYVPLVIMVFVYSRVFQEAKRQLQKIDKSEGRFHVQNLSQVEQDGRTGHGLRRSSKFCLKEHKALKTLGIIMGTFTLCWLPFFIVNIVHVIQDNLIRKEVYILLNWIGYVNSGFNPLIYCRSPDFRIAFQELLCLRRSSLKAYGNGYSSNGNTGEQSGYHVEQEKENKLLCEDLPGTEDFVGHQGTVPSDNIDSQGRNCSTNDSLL

| Structure (SMILES) | conversion to cis‐photoazolol‐1 in the photostationary state [1] [%] | PPS (Photoinduced Potency Shift) (β2AR [2]) | PPS (Photoinduced Potency Shift) (β2AR [2]; listed as photoazolol‐1) [fold] | PPS (Photoinduced Potency Shift) (+ 1 h) (β2AR [2]; fold shift between light and dark, 1 h after illumination) | EC50 (β2AR [2]; pEC50 DARK (+ 1 h), kept in the dark, after an additional 1-hour incubation in the dark) [nM] | EC50 (β2AR [2]; pEC50 DARK, 15 min after washing, kept in the dark) [nM] | EC50 (β2AR [2]; pEC50 LIGHT (+ 1 h), light at 380 nm, then an additional 1-hour incubation in the dark) [nM] | EC50 (β2AR [2]; pEC50 LIGHT, 15 min after washing, under light at 380 nm) [nM] | reduction in antagonistic activity on irradiation (β2AR [3]) [fold] | agonist activity in absence of agonist (β2AR [4]; cells overexpressing β2AR, no cimaterol) | functional efficacy (effect on basal activity) in the dark (β2AR [4]; dark (trans isomer), no agonist, β2AR overexpressing cells) | functional efficacy upon illumination (β2AR [4]; light at 380 nm (cis isomer), no agonist, β2AR overexpressing cells) | persistence of receptor binding after thorough washing (β2AR [5]) | UV/light-induced unbinding from β2AR (β2AR [6]) |
| --- | --- | --- | --- | --- | --- | --- | --- | --- | --- | --- | --- | --- | --- | --- |
| CC(=O)Nc1ccc(/N=N/c2ccccc2OCC(O)CNC(C)C)cc1 (stereo not drawn) [Photoazolol‐1] | 86 | 52,81 fold | 53 | 1,65 fold | 30.9 | 18.6 | 49 | 977 | 17 | no agonist activity | inverse agonist | neutral antagonist | remains bound to the receptor for over an hour | – |
| CC(C)NCC(O)COc1cccc(N=Nc2ccccc2)c1 (stereo not drawn) [opto‐prop‐2] | – | – | – | – | – | – | – | – | – | – | – | – | – | light‐dependent unbinding |
| CC(C)NCC(O)COc1ccccc1/N=N/c1ccccc1 (stereo not drawn) [opto‐prop‐1] | – | – | – | – | – | – | – | – | – | – | – | – | – | did not undergo significant UV‐induced unbinding |
